ChEMBL document CHEMBL5715949, “Discovery of a selective irreversible BMX inhibitor for prostate cancer” (ACS Chem Biol, 2013)
Calls of active or inactive are those of the source. No cut-off for these calls is given here.

Key:
LNCaP C4-2 = experiment: Antiproliferative activity against human C4-2 cells assessed growth inhibition incubated for 2 to 5 days by CellTiter-Glo assay; type: functional; details: time 2-5 day
RV-1 [1] = experiment: Induction of apoptosis in human RV-1 cells assessed as increase in cleaved caspase-3 protein expression at 5 uM incubated for 3 days by immunostaining analysis; type: functional, cell-based; details: time 3.0 day
[2] = Inhibition of PI3K/AKT/mTOR signalling pathway in human RV-1 cells assessed as decrease in AKT phosphorylation at T308 residue at 2.5 uM incubated for 5 days by immunoblot analysis; type: cell-based; details: time 5.0 day
[3] = target: Tyrosine-protein kinase Fgr (Homo sapiens) (UniProt P09769); experiment: Inhibition of FGR (unknown origin) assessed as remaining activity at 1 uM by Kinome scan method relative to control
Tyrosine-protein kinase Fgr (Homo sapiens), sequence (P09769 2-529 limits assumed): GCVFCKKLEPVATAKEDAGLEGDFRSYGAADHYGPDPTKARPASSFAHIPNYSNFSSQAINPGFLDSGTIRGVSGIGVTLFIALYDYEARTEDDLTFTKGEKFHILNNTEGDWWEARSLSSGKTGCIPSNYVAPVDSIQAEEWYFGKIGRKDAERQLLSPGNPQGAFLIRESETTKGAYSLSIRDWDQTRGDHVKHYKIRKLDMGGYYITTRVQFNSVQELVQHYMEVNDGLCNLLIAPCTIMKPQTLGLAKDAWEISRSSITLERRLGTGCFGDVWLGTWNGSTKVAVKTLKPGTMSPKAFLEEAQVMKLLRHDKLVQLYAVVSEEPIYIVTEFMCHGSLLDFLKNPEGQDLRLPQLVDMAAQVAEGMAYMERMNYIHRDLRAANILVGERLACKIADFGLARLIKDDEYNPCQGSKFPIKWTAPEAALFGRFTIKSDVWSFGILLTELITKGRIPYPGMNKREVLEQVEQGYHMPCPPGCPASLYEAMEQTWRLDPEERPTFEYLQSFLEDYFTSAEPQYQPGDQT

[4] = target: Hormonally up-regulated neu tumor-associated kinase (Homo sapiens) (UniProt P57058); experiment: Inhibition of HUNK (unknown origin) assessed as remaining activity at 1 uM by Kinome scan method relative to control
Hormonally up-regulated neu tumor-associated kinase (Homo sapiens), sequence (P57058 whole entry, the tested form may be a part): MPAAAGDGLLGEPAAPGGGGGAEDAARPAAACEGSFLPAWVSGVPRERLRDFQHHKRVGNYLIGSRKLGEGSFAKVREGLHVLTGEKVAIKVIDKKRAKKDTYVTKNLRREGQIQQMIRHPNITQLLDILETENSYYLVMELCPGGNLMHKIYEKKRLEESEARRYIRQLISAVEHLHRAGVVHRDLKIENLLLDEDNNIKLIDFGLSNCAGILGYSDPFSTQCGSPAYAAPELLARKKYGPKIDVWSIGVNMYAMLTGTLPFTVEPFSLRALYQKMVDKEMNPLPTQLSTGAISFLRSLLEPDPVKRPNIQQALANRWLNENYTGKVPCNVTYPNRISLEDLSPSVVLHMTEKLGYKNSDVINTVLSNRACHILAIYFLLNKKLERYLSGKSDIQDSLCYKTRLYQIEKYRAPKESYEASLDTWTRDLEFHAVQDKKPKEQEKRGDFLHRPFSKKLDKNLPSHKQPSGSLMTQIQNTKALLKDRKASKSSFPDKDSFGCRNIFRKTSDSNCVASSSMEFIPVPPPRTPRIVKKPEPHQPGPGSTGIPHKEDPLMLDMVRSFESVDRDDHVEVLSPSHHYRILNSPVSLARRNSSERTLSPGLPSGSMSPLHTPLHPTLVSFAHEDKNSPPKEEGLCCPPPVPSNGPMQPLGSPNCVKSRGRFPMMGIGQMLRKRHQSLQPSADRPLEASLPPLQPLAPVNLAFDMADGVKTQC

[5] = target: Ribosomal protein S6 kinase alpha-6 (Homo sapiens) (UniProt Q9UK32); experiment: Inhibition of C-terminal kinase domain RSK4 (unknown origin) assessed as remaining activity at 1 uM by Kinome scan method relative to control
[6] = target: Phosphatidylinositol 4,5-bisphosphate 3-kinase catalytic subunit beta isoform (Homo sapiens) (UniProt P42338); experiment: Inhibition of PIK3CB (unknown origin) assessed as remaining activity at 1 uM by Kinome scan method relative to control
[7] = target: Ribosomal protein S6 kinase alpha-4 (Homo sapiens) (UniProt O75676); experiment: Inhibition of N-terminal kinase domain RPS6KA4 (unknown origin) assessed as remaining activity at 1 uM by Kinome scan method relative to control
[8] = target: Serine/threonine-protein kinase STK11 (Homo sapiens) (UniProt Q15831); experiment: Inhibition of LKB1 (unknown origin) assessed as remaining activity at 1 uM by Kinome scan method relative to control
Serine/threonine-protein kinase STK11 (Homo sapiens), sequence (Q15831 whole entry): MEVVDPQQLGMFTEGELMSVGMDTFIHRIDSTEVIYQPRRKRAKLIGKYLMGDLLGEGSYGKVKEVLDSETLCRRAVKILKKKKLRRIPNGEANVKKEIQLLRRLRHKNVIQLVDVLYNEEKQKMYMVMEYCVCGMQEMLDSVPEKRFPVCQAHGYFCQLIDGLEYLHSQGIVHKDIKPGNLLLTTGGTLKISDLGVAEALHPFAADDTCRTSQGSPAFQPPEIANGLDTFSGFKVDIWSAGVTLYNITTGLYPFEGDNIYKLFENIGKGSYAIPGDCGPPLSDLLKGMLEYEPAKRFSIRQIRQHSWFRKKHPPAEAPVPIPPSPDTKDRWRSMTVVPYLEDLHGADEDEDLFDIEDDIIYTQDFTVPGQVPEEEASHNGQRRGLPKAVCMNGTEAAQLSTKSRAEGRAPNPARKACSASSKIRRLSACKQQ

[9] = target: Serine/threonine-protein kinase RIO1 (Homo sapiens) (UniProt Q9BRS2); experiment: Inhibition of RIOK1 (unknown origin) assessed as remaining activity at 1 uM by Kinome scan method relative to control
[10] = Down regulation of BMX protein expression in human RV-1 cells expressing BMX C496S mutant assessed protein expression level at 2.5 uM pre incubated for 4 hrs followed by compound wash out and additon of CHX and measured after 16 hrs by immunoblot analysis (reference value: 1.01 to 1.13); type: functional
[11] = tested on: Mast/stem cell growth factor receptor Kit (Homo sapiens), P10721 [A829P]; experiment: Inhibition of KIT A829P mutant (unknown origin) assessed as remaining activity at 1 uM by Kinome scan method relative to control
VCaP = experiment: Antiproliferative activity against human VCaP cells assessed growth inhibition incubated for 2 to 5 days by CellTiter-Glo assay; type: functional; details: time 2-5 day
[12] = Inhibition of PI3K/AKT/mTOR signalling pathway in human RV-1 cells assessed as decrease in S6K phosphorylation at T389 residue at 2.5 uM incubated for 5 days by immunoblot analysis; type: cell-based; details: time 5.0 day
[13] = target: Serine/threonine-protein kinase MARK1 (Homo sapiens) (UniProt Q9P0L2); experiment: Inhibition of MARK1 (unknown origin) assessed as remaining activity at 1 uM by Kinome scan method relative to control
[14] = target: Serine/threonine-protein kinase PAK 3 (Homo sapiens) (UniProt O75914); experiment: Inhibition of PAK3 (unknown origin) assessed as remaining activity at 1 uM by Kinome scan method relative to control
[15] = target: LIM domain kinase 2 (Homo sapiens) (UniProt P53671); experiment: Inhibition of LIMK2 (unknown origin) assessed as remaining activity at 1 uM by Kinome scan method relative to control
LIM domain kinase 2 (Homo sapiens), sequence (P53671 whole entry, looked up, the tested form may be a part): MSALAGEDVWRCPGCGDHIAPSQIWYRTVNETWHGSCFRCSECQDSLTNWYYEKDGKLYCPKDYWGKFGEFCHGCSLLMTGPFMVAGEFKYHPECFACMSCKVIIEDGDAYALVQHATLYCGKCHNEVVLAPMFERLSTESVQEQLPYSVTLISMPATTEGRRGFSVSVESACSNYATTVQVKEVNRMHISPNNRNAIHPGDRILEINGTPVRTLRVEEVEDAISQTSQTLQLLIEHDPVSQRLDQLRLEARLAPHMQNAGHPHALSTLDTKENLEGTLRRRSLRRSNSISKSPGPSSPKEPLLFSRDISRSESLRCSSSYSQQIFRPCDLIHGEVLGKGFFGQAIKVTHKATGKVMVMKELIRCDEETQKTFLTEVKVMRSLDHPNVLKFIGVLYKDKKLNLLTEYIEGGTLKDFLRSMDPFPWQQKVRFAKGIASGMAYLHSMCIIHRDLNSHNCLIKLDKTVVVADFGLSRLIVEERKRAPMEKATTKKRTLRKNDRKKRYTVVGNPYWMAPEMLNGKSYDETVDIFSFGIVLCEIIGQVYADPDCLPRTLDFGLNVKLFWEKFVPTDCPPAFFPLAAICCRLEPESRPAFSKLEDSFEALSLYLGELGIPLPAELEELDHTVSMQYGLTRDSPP

[16] = target: Vascular endothelial growth factor receptor 3 (Homo sapiens) (UniProt P35916); experiment: Inhibition of FLT4 (unknown origin) assessed as remaining activity at 1 uM by Kinome scan method relative to control
Vascular endothelial growth factor receptor 3 (Homo sapiens), sequence (P35916 whole entry): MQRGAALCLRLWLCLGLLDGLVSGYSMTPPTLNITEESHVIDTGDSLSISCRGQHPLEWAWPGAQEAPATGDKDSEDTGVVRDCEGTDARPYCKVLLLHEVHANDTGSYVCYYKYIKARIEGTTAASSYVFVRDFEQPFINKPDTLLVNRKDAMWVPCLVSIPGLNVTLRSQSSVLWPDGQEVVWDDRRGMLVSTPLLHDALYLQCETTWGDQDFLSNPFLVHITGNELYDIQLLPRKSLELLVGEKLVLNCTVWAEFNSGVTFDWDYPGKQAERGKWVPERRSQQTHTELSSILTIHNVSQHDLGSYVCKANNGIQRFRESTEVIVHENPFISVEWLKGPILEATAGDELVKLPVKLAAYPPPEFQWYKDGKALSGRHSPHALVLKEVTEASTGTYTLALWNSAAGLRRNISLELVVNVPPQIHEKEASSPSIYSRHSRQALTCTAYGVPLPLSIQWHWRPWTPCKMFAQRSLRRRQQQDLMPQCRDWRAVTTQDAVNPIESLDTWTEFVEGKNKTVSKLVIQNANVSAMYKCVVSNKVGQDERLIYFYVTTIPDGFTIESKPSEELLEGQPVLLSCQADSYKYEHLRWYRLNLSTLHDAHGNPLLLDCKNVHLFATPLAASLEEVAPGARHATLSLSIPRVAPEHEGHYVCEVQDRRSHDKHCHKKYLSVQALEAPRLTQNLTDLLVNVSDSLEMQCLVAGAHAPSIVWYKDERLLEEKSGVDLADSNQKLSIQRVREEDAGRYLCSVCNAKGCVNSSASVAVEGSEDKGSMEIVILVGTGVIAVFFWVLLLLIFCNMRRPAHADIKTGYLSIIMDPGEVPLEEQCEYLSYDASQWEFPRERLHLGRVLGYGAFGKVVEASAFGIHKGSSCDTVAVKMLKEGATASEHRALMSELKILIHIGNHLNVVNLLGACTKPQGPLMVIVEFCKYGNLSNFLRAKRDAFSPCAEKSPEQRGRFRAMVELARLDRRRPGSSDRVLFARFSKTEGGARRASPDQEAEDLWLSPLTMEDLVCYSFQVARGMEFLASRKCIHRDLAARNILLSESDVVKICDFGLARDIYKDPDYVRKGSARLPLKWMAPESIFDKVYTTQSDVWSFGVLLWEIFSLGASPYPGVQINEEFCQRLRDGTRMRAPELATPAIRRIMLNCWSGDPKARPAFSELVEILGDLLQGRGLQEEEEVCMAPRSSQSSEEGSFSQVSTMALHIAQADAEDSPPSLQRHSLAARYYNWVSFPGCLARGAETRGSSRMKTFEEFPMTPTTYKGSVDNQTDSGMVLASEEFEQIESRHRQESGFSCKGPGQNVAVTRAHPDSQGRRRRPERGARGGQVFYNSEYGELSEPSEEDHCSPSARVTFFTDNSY

[17] = target: SRSF protein kinase 1 (Homo sapiens) (UniProt Q96SB4); experiment: Inhibition of SRPK1 (unknown origin) assessed as remaining activity at 1 uM by Kinome scan method relative to control
[18] = target: Mitogen-activated protein kinase 8 (Homo sapiens) (UniProt P45983); experiment: Inhibition of JNK1 (unknown origin) assessed as remaining activity at 1 uM by Kinome scan method relative to control
Mitogen-activated protein kinase 8 (Homo sapiens), sequence (P45983 whole entry): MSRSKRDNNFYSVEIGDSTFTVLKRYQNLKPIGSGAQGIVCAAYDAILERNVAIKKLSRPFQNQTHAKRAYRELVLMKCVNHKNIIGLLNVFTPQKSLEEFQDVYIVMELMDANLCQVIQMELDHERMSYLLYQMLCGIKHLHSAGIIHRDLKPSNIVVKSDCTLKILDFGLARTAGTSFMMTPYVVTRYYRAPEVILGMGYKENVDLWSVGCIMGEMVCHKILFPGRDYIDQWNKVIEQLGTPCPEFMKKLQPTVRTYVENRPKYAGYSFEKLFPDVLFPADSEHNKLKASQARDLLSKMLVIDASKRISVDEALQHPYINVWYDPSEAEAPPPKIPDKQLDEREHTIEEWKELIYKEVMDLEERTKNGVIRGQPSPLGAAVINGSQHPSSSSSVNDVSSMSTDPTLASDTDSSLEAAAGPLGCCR

[19] = target: Tyrosine-protein kinase Lyn (Homo sapiens) (UniProt P07948); experiment: Inhibition of LYN (unknown origin) assessed as remaining activity at 1 uM by Kinome scan method relative to control
Tyrosine-protein kinase Lyn (Homo sapiens), sequence (P07948 2-512 limits assumed): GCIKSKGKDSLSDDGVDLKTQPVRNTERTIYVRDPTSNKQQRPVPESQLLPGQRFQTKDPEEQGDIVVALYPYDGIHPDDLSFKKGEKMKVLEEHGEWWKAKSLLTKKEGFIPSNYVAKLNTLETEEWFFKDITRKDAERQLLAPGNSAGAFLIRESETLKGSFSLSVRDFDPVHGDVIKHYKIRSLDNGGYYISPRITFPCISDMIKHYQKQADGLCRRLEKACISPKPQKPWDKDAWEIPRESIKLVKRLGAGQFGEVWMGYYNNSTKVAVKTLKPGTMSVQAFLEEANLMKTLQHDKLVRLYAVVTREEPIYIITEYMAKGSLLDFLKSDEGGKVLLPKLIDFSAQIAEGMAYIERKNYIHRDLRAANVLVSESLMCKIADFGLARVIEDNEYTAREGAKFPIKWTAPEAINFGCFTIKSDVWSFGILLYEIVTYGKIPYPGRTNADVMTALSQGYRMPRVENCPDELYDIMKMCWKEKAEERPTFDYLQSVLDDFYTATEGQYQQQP

RV-1 [20] = experiment: Induction of apoptosis in human RV-1 cells assessed as decrease in number of cell at 5 uM incubated for 3 days by Hoechst 33342 staining based analysis; type: functional; details: time 3.0 day
RV-1 [21] = experiment: Antiproliferative activity against human RV-1 cells assessed as reduction in cell viability at 500 to 2500 nM incubated for 5 days in presence of Torin1 by CellTiter-Glo assay; type: functional, cell-based; details: dose 500-2500 nM, time 5.0 day
[22] = target: Membrane-associated tyrosine- and threonine-specific cdc2-inhibitory kinase (Homo sapiens) (UniProt Q99640); experiment: Inhibition of PKMYT1 (unknown origin) assessed as remaining activity at 1 uM by Kinome scan method relative to control
[23] = tested on: Tyrosine-protein kinase ABL1 (Homo sapiens), P00519 [H396P]; experiment: Inhibition of ABL1 H396P mutant (unknown origin) assessed as remaining activity at 1 uM by Kinome scan method relative to control
[24] = target: Rho-associated protein kinase 2 (Homo sapiens) (UniProt O75116); experiment: Inhibition of ROCK2 (unknown origin) assessed as remaining activity at 1 uM by Kinome scan method relative to control
[25] = target: Dual specificity testis-specific protein kinase 1 (Homo sapiens) (UniProt Q15569); experiment: Inhibition of TESK1 (unknown origin) assessed as remaining activity at 1 uM by Kinome scan method relative to control
[26] = target: Serine/threonine-protein kinase Nek2 (Homo sapiens) (UniProt P51955); experiment: Inhibition of NEK2 (unknown origin) assessed as remaining activity at 1 uM by Kinome scan method relative to control
[27] = target: Interleukin-1 receptor-associated kinase 1 (Homo sapiens) (UniProt P51617); experiment: Inhibition of IRAK1 (unknown origin) assessed as remaining activity at 1 uM by Kinome scan method relative to control
[28] = target: Serine/threonine-protein kinase DCLK3 (Homo sapiens) (UniProt Q9C098); experiment: Inhibition of DCAMKL3 (unknown origin) assessed as remaining activity at 1 uM by Kinome scan method relative to control
[29] = target: Serine/threonine-protein kinase pim-3 (Homo sapiens) (UniProt Q86V86); experiment: Inhibition of PIM3 (unknown origin) assessed as remaining activity at 1 uM by Kinome scan method relative to control
[30] = tested on: Proto-oncogene tyrosine-protein kinase receptor Ret (Homo sapiens), P07949 [V804L]; experiment: Inhibition of RET V804L (unknown origin) assessed as remaining activity at 1 uM by Kinome scan method relative to control

C=CC(=O)Nc1cc(-n2c(=O)ccc3cnc4ccc(-c5ccc(NS(C)(=O)=O)cc5)cc4c32)ccc1C
GI50 (LNCaP C4-2): > 10000 nM | Activity (RV-1 [1]): Active | inhibition [2]: Active | Activity [3]: 72% | Activity [4]: 85% | Activity [5]: 56% | Activity [6]: 75% | Activity [7]: 67% | Activity [8]: 79% | Activity [9]: 20% | Activity [10]: 0.74 | Activity [11]: 74% | GI50 (VCaP): 2460 nM | inhibition [12]: Active | Activity [13]: 97% | Activity [14]: 92% | Activity [15]: 92% | Activity [16]: 72% | Activity [17]: 78% | Activity [18]: 93% | Activity [19]: 92% | Activity (RV-1 [20]): Active | Activity (RV-1 [21]): Active | Activity [22]: 77% | Activity [23]: 74% | Activity [24]: 87% | Activity [25]: 94% | Activity [26]: 79% | Activity [27]: 72% | Activity [28]: 94% | Activity [29]: 83% | Activity [30]: 79%
